Experiment [1] addresses T1, B. anthracis DHOase (Bacillus anthracis, UniProt Q81WF0). The note with it: cited from earlier work.
Experiment [2] deals with WT-DHOase (B. anthracis DHOase) (Bacillus anthracis, UniProt Q81WF0). The format is biochemical.
A further experiment has as its system E. coli DHOase. The note with it: cited from earlier work.
For experiment [3], the target named is T1, B. anthracis DHOase. Format: binding. The note with it: for KD (equilibrium dissociation constant determined by SPR): 25 °C. Background: SPR reads the build-up and loss of mass on a sensor chip optically.
The target of experiment [4] is T1, B. anthracis DHOase. Format: binding.

Sequence of WT-DHOase (B. anthracis DHOase) (Q81WF0 whole entry, looked up): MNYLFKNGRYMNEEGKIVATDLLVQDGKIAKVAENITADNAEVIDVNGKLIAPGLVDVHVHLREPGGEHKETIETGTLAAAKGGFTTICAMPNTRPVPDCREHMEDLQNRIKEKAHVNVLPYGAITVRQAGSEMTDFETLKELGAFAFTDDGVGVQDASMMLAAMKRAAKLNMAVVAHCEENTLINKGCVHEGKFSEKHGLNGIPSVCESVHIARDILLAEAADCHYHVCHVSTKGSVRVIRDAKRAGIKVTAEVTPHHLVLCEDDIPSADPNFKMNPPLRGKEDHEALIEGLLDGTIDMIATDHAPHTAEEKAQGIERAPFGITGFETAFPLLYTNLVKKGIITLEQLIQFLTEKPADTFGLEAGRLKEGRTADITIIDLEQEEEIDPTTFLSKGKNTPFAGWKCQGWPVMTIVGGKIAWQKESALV
T1 sequence (Q81WF0 whole entry, looked up): as above

Regarding `Nc1c(C(=O)O)[nH]c(=O)[nH]c1=O` [5-aminoorotate (AOA), 5-aminoorotate], the “inhibition of B. anthracis DHOase” value at B. anthracis DHOase [1] is listed as “no inhibition”.

`O=C(O)c1[nH]c(=O)[nH]c(=O)c1F` [5-fluoroorotate (FOA), 5-fluoroorotate]: the “inhibition of B. anthracis DHOase” value at B. anthracis DHOase [1] is on record as “no inhibition”. For the molecule `NC(=O)N[C@@H](CC(=O)O)C(=O)O` [Ca-asp, carbamyl-asparate], in experiment [2], the Km (usually the substrate concentration at which the rate is half of its maximum) came out at 112 ± 24 µM and the kcat (in general, the maximal rate divided by the concentration of active sites) worked out at 2.1 ± 0.1 s⁻¹. Further, in the experiment on E. coli DHOase, the Km is 1700 µM and the kcat was 160 ± 8 s⁻¹. With `CCC(=O)Nc1ccc(OC)cc1OC` [Compound 4], the “KD with 1 mM Ca-asp” value at B. anthracis DHOase [3] is listed as “remained the same”. The “shift in melting temperature (Tm)” value on B. anthracis DHOase [4] is reported as “shows a shift in melting temperature”. Regarding `COc1ccc2[nH]c3c(c2c1)CCNC3` [Compound 6a], at B. anthracis DHOase [3], the “KD with 1 mM Ca-asp” value is on record as “not affected” and the “fold change of KD relative to compound 6” value is ~ 1.5 fold. Take `Cc1ccc2[nH]c3c(c2c1)CCNC3` [Compound 6b]: the “KD (equilibrium dissociation constant determined by SPR)” value at B. anthracis DHOase [3] is “completely abolished”.

Consider `COc1ccc2[nH]c(CN)cc2c1` [Compound 6c], for which the “KD (equilibrium dissociation constant determined by SPR)” value on B. anthracis DHOase [3] is recorded as “no interaction”. As to `CSC1(NC#N)NCCc2c1[nH]c1ccc(F)cc21` (stereo not shown) [Compound 7], on B. anthracis DHOase [3], the “KD with 1 mM Ca-asp” value is reported as “unable to be determined”. In the case of `COc1ccc2[nH]c3c(c2c1)CCNC3(NC#N)SC` (stereo not shown) [Compound 7a], the “fold change of KD relative to compound 6” value on B. anthracis DHOase [3] was found to be 18 fold.

For the molecule `COc1ccc2[nH]c3c(c2c1)CN(C(C)=O)CC3` [Compound 8], the “KD (equilibrium dissociation constant determined by SPR)” value at B. anthracis DHOase [3] is reported as “weaker”. For `O=C1CC(C(=O)O)NC(=O)N1` (stereo not shown) [DHO, dihydroorotate], in experiment [2], the Km is 114 ± 16 µM and the kcat worked out at 1.9 ± 0.1 s⁻¹. Also, in the experiment with E. coli DHOase, the Km was 80 µM and the kcat is 100 ± 1.6 s⁻¹.
